# Test results taken from ChEMBL document CHEMBL3507680, “University of Dundee, Gates Library screen for HepG2 cell viability”.
# Test: Human HepG2 cell viability assay in 384 well format
# Assay type: toxicity, cell-based
# Design: dose 125 nL, time 70.5 hour; cytotoxicity at 70.5 h: concentration not given beside the values
# Conditions: HepG2 cells, read-out: Inhibition
smiles,measurement,value
COc1cccc(C2=CCN(CCN3CCCC3=O)CC2)c1,cytotoxicity at 70.5 h,-7.88%
Cc1oc(-c2ccsc2)nc1CNC(C)Cn1cccn1 (configuration not stated),cytotoxicity at 70.5 h,11.6%
CN1CC(C(=O)NCc2cccnc2OCC(F)(F)F)CC1=O (configuration not stated),cytotoxicity at 70.5 h,-2.61%
CN(CCS(=O)(=O)c1cc(Cl)ccc1Cl)CC(N)=O,cytotoxicity at 70.5 h,-0.37%
CCOC(=O)C1CCN(C(=O)Cc2c(C)nc(C)[nH]c2=O)CC1,cytotoxicity at 70.5 h,12.3%
CC(C)N(CC(N)=O)Cc1cccc(Br)c1,cytotoxicity at 70.5 h,1.5%
Cc1nc(-c2ccc(Cl)s2)sc1C(=O)N(C)CC(N)=O,cytotoxicity at 70.5 h,11.9%
CC(C)N(CC(N)=O)Cc1cccc(C(F)(F)F)c1,cytotoxicity at 70.5 h,-1.84%
Cc1nc(C)c(CC(=O)N2CCN(CC(C)C)CC2)c(=O)[nH]1,cytotoxicity at 70.5 h,2.2%
CCOC(=O)N1CCN(C(=O)Cc2c(C)nc(C)[nH]c2=O)CC1,cytotoxicity at 70.5 h,13.6%
CCc1ccc(C(C)NC(=O)c2ccc(CS(C)(=O)=O)o2)cc1 (configuration not stated),cytotoxicity at 70.5 h,-4.79%
Cc1cccc(C)c1NCc1noc(C2CC2)n1,cytotoxicity at 70.5 h,0.946%
c1ccc2c(NCC3(N4CCOCC4)CCSC3)ncnc2c1 (configuration not stated),cytotoxicity at 70.5 h,2.49%
Cc1nc(S(=O)(=O)CCn2cccn2)n(C2CCCC2)c1C,cytotoxicity at 70.5 h,10.5%
Cc1nc(S(=O)(=O)CCn2cccn2)n(CC2CCCO2)c1C (configuration not stated),cytotoxicity at 70.5 h,-2.87%
CCCN(C)CC1CCN(c2ncc(Br)cn2)C1 (configuration not stated),cytotoxicity at 70.5 h,2.13%
CC(C1CC1)N(CC(=O)NC(=O)NC1CC1)C1CC1 (configuration not stated),cytotoxicity at 70.5 h,-3.17%
Cc1oc(-c2ccsc2)nc1CNCCn1cccn1,cytotoxicity at 70.5 h,-5.13%
Cc1ncsc1CNC(=O)N(Cc1ccccc1)CC(C)(C)O,cytotoxicity at 70.5 h,-3.17%
Cc1cccc(C(C)CNC(=O)N2CCOCC3(CCOCC3)C2)c1 (configuration not stated),cytotoxicity at 70.5 h,-4.47%
COc1cc(I)c(Cl)cc1C(=O)N(C)C,cytotoxicity at 70.5 h,-20.5%
CCOc1cc(CNC(=O)c2cnn(CC)c2C(F)(F)F)ccn1,cytotoxicity at 70.5 h,-12.6%
CCOc1ccccc1CNC(=O)c1cnn(CC)c1C(F)(F)F,cytotoxicity at 70.5 h,17.5%
CNC(=O)CN(C)C(=O)c1cc(Cl)c(I)cc1OC,cytotoxicity at 70.5 h,-18.4%
Cc1ccc(C)n1-c1c(C(=O)NCC(C)Cn2cccn2)cnn1C (configuration not stated),cytotoxicity at 70.5 h,-21.4%
CN(Cc1nnc(C2CC2)n1C)S(=O)(=O)Cc1ccccc1F,cytotoxicity at 70.5 h,-20.7%
CN(Cc1nnc(C2CC2)n1C)S(=O)(=O)c1ccc(F)c(C#N)c1,cytotoxicity at 70.5 h,-23.4%
CN(Cc1nnc(-c2ccco2)o1)C(C(N)=O)c1cccc(F)c1 (configuration not stated),cytotoxicity at 70.5 h,0.238%
Cn1nnnc1SCC1Cc2ccccc2O1 (configuration not stated),cytotoxicity at 70.5 h,26.1%
COCCCn1ccc(NS(=O)(=O)c2cc(C)c(F)cc2F)n1,cytotoxicity at 70.5 h,-15.7%
Cc1cnccc1CCNC(=O)Nc1cnc(N(C)C)nc1,cytotoxicity at 70.5 h,25.9%
COc1ccccc1CC(=O)NC1CCCc2cn[nH]c21 (configuration not stated),cytotoxicity at 70.5 h,-0.577%
Cc1ccc(CCCC(=O)N2CCN(C3CCCN(C)C3)CC2)s1 (configuration not stated),cytotoxicity at 70.5 h,-2.97%
CC(=O)c1c(F)cccc1NCC(O)C1CC1 (configuration not stated),cytotoxicity at 70.5 h,-19.1%
CN(Cc1nnc(C2CC2)n1C)S(=O)(=O)c1ccccc1C#N,cytotoxicity at 70.5 h,-15.5%
Cc1cnc(CN(Cc2cccc(O)c2)CC2CC2)cn1,cytotoxicity at 70.5 h,-6.41%
Cc1cnc(CN(Cc2ccccc2)CC2CCOCC2)cn1,cytotoxicity at 70.5 h,-3.35%
CC(=O)c1c(F)cccc1NCC(O)c1ccc(F)c(F)c1 (configuration not stated),cytotoxicity at 70.5 h,-12.6%
CCC1CN(C(=O)COc2ccc(NC(C)=O)cc2)CCO1 (configuration not stated),cytotoxicity at 70.5 h,13.7%
CN1CCC(CNC(=O)c2ccc(O)nc2)c2ccccc21 (configuration not stated),cytotoxicity at 70.5 h,1.07%
CC(C)CCC(=O)Nc1ncn(CC(=O)N2CCCCCC2)n1,cytotoxicity at 70.5 h,-2.61%
CCn1c(CN2CCCC(Cn3cncn3)C2)nc2c(F)cccc21 (configuration not stated),cytotoxicity at 70.5 h,1.73%
CCc1noc(CN(C)CCC(=O)Nc2ccc(C#N)c(Cl)c2)n1,cytotoxicity at 70.5 h,0.733%
CCn1c(CN2CCOC(Cn3cncn3)C2)nc2c(F)cccc21 (configuration not stated),cytotoxicity at 70.5 h,15.4%
COc1ccc(C(=O)NS(C)(=O)=O)cc1-c1ccccc1,cytotoxicity at 70.5 h,-1.59%
Cc1nc(-c2cccc(C(=O)N(C)C)c2)cs1,cytotoxicity at 70.5 h,1.56%
COc1ccccc1C(C)CNC(=O)c1[nH]ncc1Br (configuration not stated),cytotoxicity at 70.5 h,3.61%
Cc1ccc2c(c1)C(NC1CCN(C)CC1)CCCO2 (configuration not stated),cytotoxicity at 70.5 h,15.4%
Cc1ccc(CNCCCNS(C)(=O)=O)c(Br)c1,cytotoxicity at 70.5 h,4%
O=S(=O)(Nc1ccon1)c1cc(Cl)cc2c1OCC2,cytotoxicity at 70.5 h,1.46%
CCC(C)(NCc1nc(C)c(C)o1)c1nccs1 (configuration not stated),cytotoxicity at 70.5 h,15.6%
COc1ccc(CN2CCC3(CC(C(=O)NCC(C)C)=NO3)C2)cc1 (configuration not stated),cytotoxicity at 70.5 h,-6.44%
CC(C)CNC(=O)C1=NOC2(CCN(Cc3ccc(C(C)C)cc3)C2)C1 (configuration not stated),cytotoxicity at 70.5 h,-1.12%
CN(C)C(=O)N1Cc2nnn(CC3CC3)c2C(COCC2CC2)C1 (configuration not stated),cytotoxicity at 70.5 h,-6.92%
O=S(=O)(C1CC1)N1CCc2c(CN3CCOCC3)cncc2C1,cytotoxicity at 70.5 h,-2.38%
CS(=O)(=O)N1CCOCC12CCN(Cc1ccoc1)CC2,cytotoxicity at 70.5 h,-5.63%
COCC(=O)N1CCC2(C1)c1ccccc1S(=O)(=O)N2C (configuration not stated),cytotoxicity at 70.5 h,-9.08%
CC(=O)N1CCC2(C1)c1ccccc1S(=O)(=O)N2C (configuration not stated),cytotoxicity at 70.5 h,-7.77%
COCC(=O)N1CCC2(C1)c1ccccc1S(=O)(=O)N2CC1CC1 (configuration not stated),cytotoxicity at 70.5 h,-8.07%
CCCS(=O)(=O)N1Cc2nccn2CC(Cn2cncn2)C1 (configuration not stated),cytotoxicity at 70.5 h,20.3%
CC(C)CS(=O)(=O)N1C[C@H]2C[C@H](C(=O)N3CCCC3)[C@@H](C1)O2,cytotoxicity at 70.5 h,0.165%
CC(C)CS(=O)(=O)N1C[C@H]2C[C@H](C(=O)N(C)C)[C@@H](C1)O2,cytotoxicity at 70.5 h,-1.1%
Cc1oncc1C(=O)N1CC[C@H]2[C@@H]1CCC(=O)N2CC1CC1,cytotoxicity at 70.5 h,2.95%
O=C(c1ccccn1)N1CCc2ncnc(-c3ccncc3)c2CC1,cytotoxicity at 70.5 h,-0.573%
CCS(=O)(=O)N1Cc2nccn2CC(Cn2cncn2)C1 (configuration not stated),cytotoxicity at 70.5 h,0.16%
O=S(=O)(C1CC1)N1CCC2(CCCN(Cc3ccccn3)C2)CC1,cytotoxicity at 70.5 h,-5.17%
O=S(=O)(C1CC1)N1Cc2nccn2CC(Cn2cncn2)C1 (configuration not stated),cytotoxicity at 70.5 h,-4.4%
CC(C)N(C)[C@@H]1CCN(S(C)(=O)=O)[C@H]1Cc1ccccc1,cytotoxicity at 70.5 h,-3.3%
c1nc2c(c(N3CCOCC3)n1)CCNCC2,cytotoxicity at 70.5 h,-4.52%
c1cncc(COCC2C[C@@H]3OCCN(Cc4cccnc4)[C@H]3C2)c1 (some centres not stated),cytotoxicity at 70.5 h,-2.24%
Cc1oncc1C(=O)N1CC[C@H]2[C@@H]1CCC(=O)N2CC1CCOCC1,cytotoxicity at 70.5 h,-1.77%
COCCN1CCc2ncnc(N(C)C)c2CC1,cytotoxicity at 70.5 h,-10.9%
COCCN1CCc2ncnc(NC3CC3)c2CC1,cytotoxicity at 70.5 h,-2.68%
COCC1CN(c2ncccn2)Cc2cnn(CC3CC3)c21 (configuration not stated),cytotoxicity at 70.5 h,-6.23%
CC(C)N(C)Cc1cc(=O)n2c(n1)CN(C(=O)c1cnccn1)CCC2,cytotoxicity at 70.5 h,4.66%
CC(C)N(CC(=O)O)Cc1cccc(Br)c1,cytotoxicity at 70.5 h,2.77%
O=C(O)CN1CCC(C(F)(F)F)CC1,cytotoxicity at 70.5 h,-2.76%
CC(C)CN1CCO[C@H]2CCN(c3cnccn3)CC[C@@H]21,cytotoxicity at 70.5 h,-8.81%
Cc1csc([C@@H]2C[C@H]3CN(c4ncc(F)cn4)C[C@H]3O2)n1,cytotoxicity at 70.5 h,-2.24%
CS(=O)(=O)N1CCOCC12CCN(Cc1ccc(F)cc1)CC2,cytotoxicity at 70.5 h,-6.42%
CNC(=O)COC1COC2(CCN(Cc3ccncc3F)CC2)C1 (configuration not stated),cytotoxicity at 70.5 h,-18%
Fc1cccc(CN2CCC3(CCN3c3ncccn3)C2)c1 (configuration not stated),cytotoxicity at 70.5 h,-8.53%
Cc1ccc(N2C[C@@H]3OCCN(CC4CC4)[C@@H]3C2)nn1,cytotoxicity at 70.5 h,-7.81%
CNC(=O)COC1COC2(CCN(Cc3cccnc3OC)CC2)C1 (configuration not stated),cytotoxicity at 70.5 h,-8.67%
CS(=O)(=O)NC[C@H]1OC[C@@H]2CCN(CCc3ccccc3)C[C@@H]21,cytotoxicity at 70.5 h,17.3%
O=C(c1ccno1)N1CCc2ncnc(-c3ccncc3)c2CC1,cytotoxicity at 70.5 h,1.37%
CS(=O)(=O)NC[C@@H]1OC[C@H]2CN(Cc3ccccc3)CC[C@H]21,cytotoxicity at 70.5 h,-1.13%
Cc1cccc(CN2CCc3onc(Cn4cccc4)c3C2)n1,cytotoxicity at 70.5 h,-2.56%
O=S(=O)(C1CC1)N1CCO[C@@H]2CC(COCc3cccnc3)C[C@H]21 (some centres not stated),cytotoxicity at 70.5 h,-2.81%
Cn1ccnc1C(=O)N1CCC2(CCN2c2ncccn2)C1 (configuration not stated),cytotoxicity at 70.5 h,0.472%
N#Cc1cccc(CN2CC[C@@H]3CN(c4ncccn4)CCO[C@@H]3C2)c1,cytotoxicity at 70.5 h,21.7%
CC(C)n1nc(CN2CCOCC2)c2c1CN(C(=O)c1ccno1)C2,cytotoxicity at 70.5 h,-4.42%
CN(C)[C@@H]1CN(C(=O)Cc2cccc(F)c2)[C@@H]2CCCO[C@H]12,cytotoxicity at 70.5 h,-1.9%
CN(C)[C@@H]1CN(C(=O)CCc2ccccc2)[C@@H]2CCCO[C@H]12,cytotoxicity at 70.5 h,-3.71%
CC(C)n1nc(CN2CCCCC2)c2c1CN(C(=O)c1ccno1)C2,cytotoxicity at 70.5 h,-8.4%
c1cc(CN2C[C@H](OCC3CCOCC3)[C@H]3COC[C@H]32)cs1,cytotoxicity at 70.5 h,-7.76%
O=C1CC[C@H]2[C@H](CCN2c2ncc(F)cn2)N1c1ccccc1,cytotoxicity at 70.5 h,-5.86%
Cc1noc([C@H]2C[C@@H]3CCN(c4nnc(C)s4)C[C@H]3O2)n1,cytotoxicity at 70.5 h,-8.11%
CCCC(=O)NC1CCc2c(ccc(=O)n2Cc2csc(C)n2)C1 (configuration not stated),cytotoxicity at 70.5 h,-12.5%
CCc1ncnc2c1CCN(CCOC)CC2,cytotoxicity at 70.5 h,-9.59%
c1cnc(N2CCO[C@H]3[C@H](OCC4CC4)CC[C@@H]32)nc1,cytotoxicity at 70.5 h,-7.29%
N#Cc1cccc(CN2C[C@@H]3CN(c4ncccn4)C[C@@H]3C2)c1,cytotoxicity at 70.5 h,-6.36%
COCCN1CCc2ncnc(-c3ccccc3)c2CC1,cytotoxicity at 70.5 h,-5.42%
CC(C)NC(=O)[C@@]12CCO[C@@H]1CCN(Cc1ccco1)C2,cytotoxicity at 70.5 h,1.53%
Cc1ccc(N2Cc3cnn(C)c3C(COCC3CC3)C2)nn1 (configuration not stated),cytotoxicity at 70.5 h,-4.86%
CCOCC1CN(c2ccc(C)nn2)Cc2cnn(CC)c21 (configuration not stated),cytotoxicity at 70.5 h,-5.73%
CCn1ncc2c1C(COCC1CC1)CN(c1ccc(C)nn1)C2 (configuration not stated),cytotoxicity at 70.5 h,-10.4%
O=S(=O)(C1CC1)N1CCC2(CCCN(Cc3ccccn3)C2)C1 (configuration not stated),cytotoxicity at 70.5 h,-0.34%
Cc1ccc(CN2CCO[C@H]3[C@H](OCc4cccnc4)CC[C@@H]32)o1,cytotoxicity at 70.5 h,36.8%
O=C(O)c1c(-c2cncnc2)ncc2c1CCN(Cc1ccco1)C2,cytotoxicity at 70.5 h,24.2%
Cn1nc(CN2CCCC2)c2c1CN(CC1CC1)CC2,cytotoxicity at 70.5 h,2.77%
CN1CCN(C[C@@H]2OC[C@H]3CN(CCc4ccccc4)CC[C@H]32)CC1,cytotoxicity at 70.5 h,-0.223%
